Data set [1] can be described thus: Cyclic voltammetry (glassy carbon, Ag/AgCl reference, 0.1 M NBu4ClO4 in acetonitrile). Format: physicochemical. Conditions: for first oxidation potential (amine) / first reduction potential: vs. Ag/AgCl; for Amine Oxidation Potential E° (D^+/D) / Fluorophore Reduction Potential E° (A/A^−): Ag/AgCl reference. The method, then:
Samples for FT IR spectroscopy were prepared as solutions in CHCl3, and only the C═O stretches are reported. Unless otherwise stated, all NMR spectra were recorded at 500 MHz for ^1H and 125 MHz for ^13C at 20-25° C. using CDCl3 as the solvent. Unless stated otherwise, mass spectra were obtained using electrospray ionization (50 V) with a 50/50 methanol/water solvent mixture with ^1% acetic acid added. Cyclic voltammetry was conducted using a glassy carbon working electrode, platinum counter electrode, and Ag/AgCl reference electrode and carried out in a 0.1 M solution of NBu4ClO4 in acetonitrile.
(§1) Summarized Syntheses. As the syntheses are described as a series of analogous compounds with general procedures are given below. Cyclic voltammetry was conducted using a glassy carbon working electrode, platinum counter electrode, and Ag/AgCl reference electrode and carried out in a 0.1 M solution of NBu4ClO4 in acetonitrile. Samples for fluorescence were prepared as 1.00 mM stock solutions in MeOH. A 30.0 μL aliquot of solution was then added to 3.000 mL of the appropriate solvent mixture (a combination of methanol and phosphate buffered saline—PBS). Relative quantum yields were determined by the relative output of equimolar solutions of two compounds using 3ay as a reference. Glucose additions were performed by the addition of a concentrated solution of glucose in PBS to a stirred solution of the fluorescent molecule in methanol/PBS.
(§2) General. All reactions were performed under an atmosphere of N2, followed by work-up in air. Protected boronate esters were stored under vacuum to prevent slow hydrolysis from atmospheric moisture. Unless stated otherwise, all chemicals were purchased from commercial suppliers. Anhydrous solvents from Aldrich were used for all reactions. Starting compounds known in the art such as N-n-butyl-4-chloronaphthalene-1,8-dicarboximide(1ax), 2,2-dimethylpropane-1,3-diyl[o-(bromomethyl) phenyl]boronate, were prepared by literature methods (see e.g. Daffy et al. Chem-Eur J 1998, 4, 1810-1815; de Silva et al., Chem Rev 1997, 97, 1515-1566). Samples for FT IR spectroscopy were prepared as solutions in CHCl3, and only the C═O stretches are reported here. All mass spectra were obtained using electrospray ionization (ESI/MS) with an ionization potential of 50V and a solvent system consisting of 1% acetic acid in 50/50 methanol/water. Cyclic voltammetry was conducted using a glassy carbon working electrode, platinum counter electrode, and Ag/AgCl reference electrode and carried out in a 0.1 M solution of NBu4ClO4 in acetonitrile. Samples for fluorescence measurements were prepared as 1.00 mM stock solutions in MeOH. A 30.0 μL aliquot of solution was then added to 3.000 mL of the appropriate solvent mixture (a combination of methanol and phosphate buffered saline—PBS) giving a final concentration of 10.0 μM for each complex. Changes in pH were carried out by the addition of small volumes of concentrated hydrochloric acid, acetic acid, or sodium hydroxide. Glucose additions were performed by the addition of a concentrated solution of glucose in PBS to a stirred solution of fluorophore in a cuvette. Relative quantum yield measurements were carried out by measuring the relative intensities of equimolar solutions (10.0 μM) of two fluorophores. Compound 3ay was used as the reference.

A short description of data set [2]: Fluorescence pH switching. Particulars: for change in fluorescence: pH changed from 11 to 2. The method, then:
Samples for fluorescence were prepared as 1.00 mM stock solutions in MeOH. A 30.0 μL aliquot of solution was then added to 3.000 mL of the appropriate solvent mixture (a combination of methanol and phosphate buffered saline—PBS) giving a final concentration of 10.0 μM for each complex. […] Glucose additions were performed by the addition of a concentrated solution of glucose in PBS to a stirred solution of fluorophore in a cuvette.

Data set [3] in a line: Fluorescence spectra and relative quantum yields of naphthalimide boronates. Format: physicochemical. Conditions: for Emission λmax / Excitation λmax / Relative Quantum Yield: PBS buffer (pH 7.4); for Relative Quantum Yield: equimolar 10.0 μM solutions, 3ay as reference.
From the text: Sample excitation and emission spectra are shown in FIG. 27 for 3ay and 3cy, along with fluorescence maxima in Table 1. Literature references indicate a higher quantum yield for secondary-amine naphthalimide derivatives than for tertiary amines in otherwise similar compounds. The pragmatic value of this gain was examined, weighing synthetic difficulty against measurable relative quantum yields.
as §1, §2

Data set [4] is described as follows: Rehm-Weller estimate of free energy of photoinduced electron transfer (PET). It is filed as physicochemical. Conditions: for ΔGPET: Rehm-Weller estimate; for λ00: average of excitation and emission maxima. The source says:
The search for new fluorescent glucose transducers based on photoelectron transfer (PET) requires, among other things, an understanding of the electrochemistry of any potential donor-acceptor pair. The free energy of PET (ΔGel) can be calculated using the Rehm-Weller equation shown below:
ΔGel(kcal mol^−1)=23.06[E^0(D^+/D)−E^0(A/A^−)]−wp−wr−ΔG00 where E^0(D^+/D) is the oxidation potential of the donor, E^0(A/A^−) is the reduction potential of the acceptor, and ΔG00 is the free energy corresponding to the equilibrium energy E00 (see e.g. Kavarnos, G. J. In Fundamentals of photoinduced electron transfer, VCH Publishers: New York, N.Y., 1993; p Chapter 1 and Rehm and Weller, Ist. J. Chem. 1970, 8, 259). The quantities wp and wr are Coulombic terms for the products and reactants, and ate found to be small in polar solvents. To simplify predictions, we assume wp and wr to be zero, and estimate E00 as the energy corresponding to [λmax(ex)+λmax(em)]/2 for each fluorophore.
ΔGPET=23.06[E^0(Z^oxidation)−E^0(F^reduction)]−ΔE00],
The electrochemical potentials can be measured using the individual molecular groups before assembling the complete molecule.
Electrochemistry. The search for new fluorescent glucose transducers based on PET requires, among other things, an understanding of the electrochemistry of any potential donor-acceptor pair. The free energy of PET (ΔGel) can be calculated using the Rehm-Weller equation shown in eq 1, where E^0(D^+/D) is the oxidation potential of the […]
ΔGe(kcal mol^−1)=23.06[E^0(D^+/D)−E^0(A/A^−)]−wp−wr−ΔG00 (1) donor, E^0(A/A^−) is the reduction potential of the acceptor, and ΔG00 is the free energy corresponding to the equilibrium energy E00. The quantities wp and wr are Coulombic terms for the products and reactants, and are found to be small in polar solvents. In our case, wr=0 since the reactants are neutral. To simplify predictions, we assume wp to be zero and estimate E00 as the energy corresponding to [λmax(ex)+λmax(em)]/2 for each fluorophore. […]
it is possible to estimate the free energy of photoinduced electron transfer (PET) in these systems (see e.g. Kavamos, G. J. Fundamentals of Photoinduced Electron Transfer, VCH: New York, 1993; pp 37-40). E0(D^+/D) and E^0(A/A^−) correspond to the […] of the electron donor (i.e. amine) and electron acceptor (i.e. fluorophore), respectively. The quantity ΔG00, is the equilibrium energy, which we estimate as the energy corresponding to the equilibrium wavelength λ00. As an estimate of λ00, we use the average of the excitation and emission maxima for each fluorophore. Smaller solvent-dependent work terms for the Coulombic interaction between the reactants and products are left out for simplicity. Since the mechanism of fluorescence switching in these systems depends on PET, this gives us a rough estimate of which fluorophores should give the best response to glucose.

The nature of data set [5]: Glucose testing of naphthalimide boronates by fluorescence. Particulars: PBS buffer (pH 7.4).
From the text: The fluorescence spectra of compounds 3 have been obtained as a function of increasing glucose concentration. […] These values range from 9% to 16% over the four compounds, with the two lower values coming from the two compounds having secondary amino groups. These low values of fractional switching are more than balanced out by the high quantum yields for compounds 3az and 3cz. As a measure of the total signal increase for each system, the product of quantum yield and fractional fluorescence increase are given in Table 1, showing that 3cz is the most promising sensor candidate of the group, as expected.
as §1
as §2, with “A 30.0 μL aliquot of solution was then added to 3.000 mL of the appropriate solvent mixture (a combination of methanol and phosphate buffered saline—PBS) giving a final concentration of 10.0 μM for each complex. Changes in pH were carried out by the addition of small volumes of concentrated hydrochloric acid, acetic acid, or sodium hydroxide. Glucose additions were performed by the addition of a concentrated solution of glucose in PBS to a stirred solution of fluorophore in a cuvette. Relative quantum yield measurements were carried out by measuring the relative intensities of equimolar solutions (10.0 μM) of two fluorophores. Compound 3ay was used as the reference.” left out

The conditions of data set [6]: vs. SCE, literature data for parent complexes; cited from earlier work.

For `CCN(CC)Cc1ccnc(-c2cc(C)ccn2)c1.O=S(=O)([O-])C(F)(F)F.[C-]#[O+].[C-]#[O+].[C-]#[O+].[Re+].c1ccncc1` [(bpyCH2NEt2)Re(CO)3(py)](OTf), reference compound], in data set [1], the “first oxidation potential (amine)” value was 1.35 V and the first reduction potential is reported as −1.20 V. Moreover, in data set [2], the change in fluorescence is recorded as 61%.

Consider “N-(5′-Tetrahydropyranoxypentyl)-4-(N′-aminoethylene-N″-ArBmethylamino)naphthalene-1,8-dicarboximide [Compound 3cz]”, for which, in data set [3], the “change in quantum yield or wavelength maximum on removal of the THP protecting group” value is given as “no significant change”, the “Emission λmax” value worked out at 525 nm, the “Excitation λmax” value worked out at 435 nm and the “Relative Quantum Yield” value turned out to be 51.2. Further, in data set [4], the ΔGPET was -1.2 kcal/mol and the λ00 is on record as 480 nm. Moreover, in data set [1], the “Amine Oxidation Potential E° (D^+/D)” value was 1.00 V and the “Fluorophore Reduction Potential E° (A/A^−)” value is −1.53 V. Further, in data set [5], the “Fluorescence Intensity Increase with added glucose (0 to 600 mg dL^−1)” value (from here on “Fluorescence Intensity Increase”) was determined as 10%.

On to “N-(5′-Tetrahydropyranoxypentyl)-4-(N′-methylaminoethylene-N″-ArBmethylamino)naphthalene-1,8-dicarboximide [Compound 3cy]”, for which, in data set [3], the “Emission λmax” value is listed as 525 nm, the “Excitation λmax” value is given as 415 nm and the “Relative Quantum Yield” value is on record as 1.32. In data set [4], the ΔGPET is -5.5 kcal/mol and the λ00 is 470 nm. In data set [1], the “Amine Oxidation Potential E° (D^+/D)” value is 0.93 V and the “Fluorophore Reduction Potential E° (A/A^−)” value is on record as −1.47 V. The “Fluorescence Intensity Increase” value in data set [5] is on record as 13%.

Regarding “N-n-Butyl-4-(N′-methylaminoethylene-N″-ArBmethylamino)naphthalene-1,8-dicarboximide [Compound 3ay]”, in data set [3], the “Emission λmax” value is on record as 535 nm, the “Excitation λmax” value was determined as 420 nm and the “Relative Quantum Yield” value amounted to 1. In addition, in data set [4], the ΔGPET is -4.8 kcal/mol and the λ00 was 478 nm. Also, in data set [1], the “Amine Oxidation Potential E° (D^+/D)” value is on record as 0.91 V and the “Fluorophore Reduction Potential E° (A/A^−)” value is −1.48 V. For the same molecule, the “Fluorescence Intensity Increase” value in data set [5] turned out to be 16%.

For `[Cl][Ru][Cl].c1ccc(-c2ccccn2)nc1.c1ccc(-c2ccccn2)nc1.c1ccc(-c2ccccn2)nc1` [[Ru(bpy)3]Cl2, reference compound], in data set [4] (from literature reduction potentials of parent complexes), the “expected ΔGel” value is 12.5 kcal/mol. Moreover, the reduction potential in data set [6] is reported as −1.31 V.

As for “N-n-Butyl-4-(N′-aminoethylene-N″-ArBmethylamino)naphthalene-1,8-dicarboximide [Compound 3az]”, in data set [3], the “Emission λmax” value is 535 nm, the “Excitation λmax” value is listed as 435 nm and the “Relative Quantum Yield” value was 44.2. Further, in data set [4], the ΔGPET is -0.62 kcal/mol and the λ00 is 485 nm. In data set [1], the “Amine Oxidation Potential E° (D^+/D)” value is recorded as 1.05 V and the “Fluorophore Reduction Potential E° (A/A^−)” value is reported as −1.48 V. In addition, in data set [5], the “Fluorescence Intensity Increase” value turned out to be 9%.

`Cc1ccnc(-c2cc(CN(C)Cc3ccccc3)ccn2)c1.O=S(=O)([O-])C(F)(F)F.[C-]#[O+].[C-]#[O+].[C-]#[O+].[Re+].c1ccncc1` [[(bpyN)Re(CO)3(py)](OTf)]: in data set [1], the “first oxidation potential (amine)” value is listed as 1.34 V and the first reduction potential is −1.20 V. Besides, in data set [2] (drop from pH 7 to pH 2), the signal increase was found to be 21%. The change in fluorescence in data set [2] worked out at 930%.
